According to ChEMBL document CHEMBL4130491, “Baicalin and its metabolites suppresses gluconeogenesis through activation of AMPK or AKT in insulin resistant HepG-2 cells” (Eur J Med Chem, 2017):
Active and inactive are the calls of the source. The calls are words filed in the database; no cut-off is given here.

How the values were obtained:
HepG2 [1] = assay: Cytotoxicity in human HepG2 cells assessed as reduction in cell viability up to 12.5 uM incubated for 24 hrs by MTT assay; type: cell-based; conditions: hepg2, 24 h
HepG2 [2] = assay: Cytotoxicity in palmitate-induced insulin-resistant human HepG2 cells assessed as reduction in cell viability at 12.5 uM incubated for 24 hrs by MTT assay; type: cell-based; conditions: hepg2, 24 h
HepG2 [3] = assay: Stimulation of glucose consumption in palmitate-induced insulin-resistant human HepG2 cells at 12.5 uM incubated for 24 hrs by glucose oxidase based assay; type: functional, cell-based
[4] = molecular target: RAC-alpha serine/threonine-protein kinase (Homo sapiens) (UniProt P31749); assay: Activation of AKT in palmitate-induced insulin-resistant human HepG2 cells assessed as reduction in GLUT2 mRNA expression at 12.5 uM incubated for 24 hrs after 1 hr pre-incubation of cells with 0.5 uM AKT inhibitor […] by real-time PCR method; type: cell-based
Sequence of RAC-alpha serine/threonine-protein kinase (Homo sapiens) (P31749 whole entry): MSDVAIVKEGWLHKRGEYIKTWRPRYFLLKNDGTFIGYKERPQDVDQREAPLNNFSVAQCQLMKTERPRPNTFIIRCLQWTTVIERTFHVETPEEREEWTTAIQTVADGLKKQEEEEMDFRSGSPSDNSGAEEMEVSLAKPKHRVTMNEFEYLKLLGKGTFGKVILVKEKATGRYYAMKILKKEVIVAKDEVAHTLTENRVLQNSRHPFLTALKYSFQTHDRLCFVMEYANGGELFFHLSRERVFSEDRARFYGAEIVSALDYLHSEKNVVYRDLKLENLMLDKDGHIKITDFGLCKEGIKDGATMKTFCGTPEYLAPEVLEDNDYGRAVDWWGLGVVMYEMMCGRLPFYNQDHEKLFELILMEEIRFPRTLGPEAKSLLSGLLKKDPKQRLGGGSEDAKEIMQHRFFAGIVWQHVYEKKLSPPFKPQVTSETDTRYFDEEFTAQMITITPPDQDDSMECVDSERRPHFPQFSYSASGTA

HepG2 [5] = assay: Cytotoxicity in human HepG2 cells assessed as reduction in cell viability at 3.125 to 50 uM incubated for 24 hrs by MTT assay; type: cell-based; conditions: hepg2, 24 h
[6] = Cytotoxicity in human HepG2 cells assessed as cell viability at 25 uM incubated for 24 hrs by MTT assay; type: cell-based; conditions: read-out: Activity
[7] = Cytotoxicity in human HepG2 cells assessed as cell viability at 50 uM incubated for 24 hrs by MTT assay; type: cell-based; conditions: read-out: Activity
[8] = molecular target: T1, AMP-activated protein kinase, AMPK (Homo sapiens) (UniProt P54646+O43741+P54619+Q9UGJ0+Q9Y478+Q13131+Q9UGI9); assay: Activation of AMPK in palmitate-induced insulin-resistant human HepG2 cells assessed as increase in AMPK phosphorylation at 12.5 uM incubated for 24 hrs by Western blot method; type: cell-based
[9] = molecular target: T1, AMP-activated protein kinase, AMPK (Homo sapiens); assay: Activation of AMPK in palmitate-induced insulin-resistant human HepG2 cells assessed as reduction in PEPCK mRNA expression at 12.5 uM incubated for 24 hrs by real-time PCR method; type: cell-based
[10] = molecular target: T1, AMP-activated protein kinase, AMPK (Homo sapiens); assay: Activation of AMPK in palmitate-induced insulin-resistant human HepG2 cells assessed as reduction in G6Pase mRNA expression at 12.5 uM incubated for 24 hrs by real-time PCR method; type: cell-based
[11] = molecular target: T1, AMP-activated protein kinase, AMPK (Homo sapiens); assay: Activation of AMPK in palmitate-induced insulin-resistant human HepG2 cells assessed as reduction in GLUT2 mRNA expression at 12.5 uM incubated for 24 hrs by real-time PCR method; type: cell-based
[12] = molecular target: T1, AMP-activated protein kinase, AMPK (Homo sapiens); assay: Activation of AMPK in palmitate-induced insulin-resistant human HepG2 cells assessed as reduction in PEPCK mRNA expression at 12.5 uM incubated for 24 hrs after 1 hr pre-incubation of cells with 10 uM AMPK inhibitor compound C by real-time PCR method; type: cell-based
[13] = molecular target: T1, AMP-activated protein kinase, AMPK (Homo sapiens); assay: Activation of AMPK in palmitate-induced insulin-resistant human HepG2 cells assessed as reduction in GLUT2 mRNA expression at 12.5 uM incubated for 24 hrs after 1 hr pre-incubation of cells with 10 uM AMPK inhibitor compound C by real-time PCR method; type: cell-based
HepG2 [14] = assay: Stimulation of glucose consumption in palmitate-induced insulin-resistant human HepG2 cells at 12.5 uM incubated for 24 hrs by glucose oxidase based assay relative to palmitate; type: functional
[15] = molecular target: RAC-alpha serine/threonine-protein kinase (Homo sapiens) (UniProt P31749); assay: Activation of AKT in palmitate-induced insulin-resistant human HepG2 cells assessed as increase in AKT phosphorylation at 12.5 uM incubated for 24 hrs by Western blot method; type: cell-based
[16] = molecular target: T1, AMP-activated protein kinase, AMPK (Homo sapiens); assay: Activation of AMPK in palmitate-induced insulin-resistant human HepG2 cells assessed as reduction in G6Pase mRNA expression at 12.5 uM incubated for 24 hrs after 1 hr pre-incubation of cells with 10 uM AMPK inhibitor compound C by real-time PCR method; type: cell-based
[17] = molecular target: RAC-alpha serine/threonine-protein kinase (Homo sapiens) (UniProt P31749); assay: Activation of AKT in palmitate-induced insulin-resistant human HepG2 cells assessed as reduction in PEPCK mRNA expression at 12.5 uM incubated for 24 hrs after 1 hr pre-incubation of cells with 10 uM AMPK inhibitor compound C by real-time PCR method; type: cell-based
[18] = molecular target: RAC-alpha serine/threonine-protein kinase (Homo sapiens) (UniProt P31749); assay: Activation of AKT in palmitate-induced insulin-resistant human HepG2 cells assessed as reduction in G6Pase mRNA expression at 12.5 uM incubated for 24 hrs after 1 hr pre-incubation of cells with 10 uM AMPK inhibitor compound C by real-time PCR method; type: cell-based
[19] = molecular target: RAC-alpha serine/threonine-protein kinase (Homo sapiens) (UniProt P31749); assay: Activation of AKT in palmitate-induced insulin-resistant human HepG2 cells assessed as reduction in GLUT2 mRNA expression at 12.5 uM incubated for 24 hrs after 1 hr pre-incubation of cells with 10 uM AMPK inhibitor compound C by real-time PCR method; type: cell-based
[20] = molecular target: RAC-alpha serine/threonine-protein kinase (Homo sapiens) (UniProt P31749); assay: Activation of AKT in palmitate-induced insulin-resistant human HepG2 cells assessed as reduction in PEPCK mRNA expression at 12.5 uM incubated for 24 hrs after 1 hr pre-incubation of cells with 0.5 uM AKT inhibitor […] by real-time PCR method; type: cell-based
[21] = molecular target: RAC-alpha serine/threonine-protein kinase (Homo sapiens) (UniProt P31749); assay: Activation of AKT in palmitate-induced insulin-resistant human HepG2 cells assessed as reduction in G6Pase mRNA expression at 12.5 uM incubated for 24 hrs after 1 hr pre-incubation of cells with 0.5 uM AKT inhibitor […] by real-time PCR method; type: cell-based

SMILES	Activity (HepG2 [1])	Activity (HepG2 [2])	Activity (HepG2 [3])	Activity [4]	Activity [8]	Activity [9]	Activity [10]	Activity [11]	Activity [12]	Activity [13]	Activity [15]	also measured
COc1c(O[C@@H]2O[C@H](C(=O)O)[C@@H](O)[C@H](O)[C@H]2O)cc2oc(-c3ccccc3)cc(=O)c2c1O	Non-Toxic	Non-Toxic	inactive	Active	–	–	–	–	–	–	–	–
O=C(O)[C@H]1O[C@@H](Oc2cc3oc(-c4ccccc4)cc(=O)c3c(O)c2O)[C@H](O)[C@@H](O)[C@@H]1O [BAICALIN]	–	Non-Toxic	Active	–	Active	Active	Active	Active	inactive	inactive	–	Activity (HepG2 [5]): Non-Toxic; viability at 24 h, 25 µM [6]: 85%; viability at 24 h, 50 µM [7]: 85%
CN(CCOc1ccc(CC2SC(=O)NC2=O)cc1)c1ccccn1 (configuration not stated) [ROSIGLITAZONE]	–	–	Active	–	Active	Active	Active	Active	–	–	–	Activity (HepG2 [14]): 7%
O=c1cc(-c2ccccc2)oc2cc(O)c(O)c(O)c12 [BAICALEIN]	Non-Toxic	Non-Toxic	Active	Active	Active	Active	Active	Active	inactive	inactive	Active	Activity [16]: inactive
O=C(O)[C@H]1O[C@@H](Oc2cc3oc(-c4ccccc4)cc(=O)c3c(O)c2O[C@@H]2O[C@H](CO)[C@@H](O)[C@H](O)[C@H]2O)[C@H](O)[C@@H](O)[C@@H]1O	Non-Toxic	Non-Toxic	Active	Active	Active	Active	Active	Active	–	–	Active	Activity [17]: Active; Activity [18]: Active; Activity [19]: Active; Activity [20]: inactive; Activity [21]: inactive
